Source: US20240270821A1, “GIP/GLP1/GCG TRI-RECEPTOR AGONISTS AND USES THEREOF” (priority 2023, published 2024)
pEC50: −log10 of the molar value. Starred links: 1 amine or outer side, 2 acyl side, 3 side chain; linkers in the order of their positions; H or OH if unused. Non-standard residues stand in square brackets, D forms with d. Residues, ends and D or L forms follow the SMILES beside them. Groups on a side chain read outwards from the residue. *: point of attachment. C18 diacid = O=C(O)CCCCCCCCCCCCCCCCC(=O)*; αMePhe(2-F) = C[C@](N)(Cc1ccccc1F)C(=O)O; γGlu = O=C(O)[C@H](CCC(=O)[*:2])N[*:1]; αMeY = C[C@](N)(Cc1ccc(O)cc1)C(=O)O; 4Pal = N[C@@H](Cc1ccncc1)C(=O)O; αMeL = CC(C)C[C@](C)(N)C(=O)O; αMeS = C[C@](N)(CO)C(=O)O; Orn = NCCC[C@H](N)C(=O)O; Aib = CC(C)(N)C(=O)O

Experiments:
Assay type in all cases: cell-based
hGIPR [1] = target: T1, hGIPR (Homo sapiens, UniProt P48546); test: Functional cAMP activation in the presence of 0.1% casein (no HSA); details: read-out: Relative cAMP EC50, hGIPR;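 also: intracellular cAMP rise after 30 min at 37 °C read by HTRF against a standard curve, scaled between buffer alone (0%) and top control ligand concentration (100%), four-parameter fit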
T1 sequence (P48546 22-466): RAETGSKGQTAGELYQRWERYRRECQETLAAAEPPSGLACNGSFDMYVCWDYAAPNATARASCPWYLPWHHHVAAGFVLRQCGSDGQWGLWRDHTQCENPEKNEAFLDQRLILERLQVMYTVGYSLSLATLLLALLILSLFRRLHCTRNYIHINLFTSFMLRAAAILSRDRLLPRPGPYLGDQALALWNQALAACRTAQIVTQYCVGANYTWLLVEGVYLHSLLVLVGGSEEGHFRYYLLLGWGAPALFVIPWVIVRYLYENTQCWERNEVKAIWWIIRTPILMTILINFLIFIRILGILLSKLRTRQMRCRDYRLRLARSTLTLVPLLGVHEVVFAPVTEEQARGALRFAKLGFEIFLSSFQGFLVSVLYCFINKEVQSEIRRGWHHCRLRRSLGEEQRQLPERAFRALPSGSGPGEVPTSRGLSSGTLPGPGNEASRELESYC

hGcgR = hGcgR (Homo sapiens, UniProt P47871); test: as above; details: read-out: Relative cAMP EC50, hGcgR;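 also: intracellular cAMP rise after 30 min at 37 °C, read by HTRF against a cAMP standard curve, scaled from buffer only (0%) to maximal control ligand response (100%)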
Chain of hGcgR (P47871 26-477): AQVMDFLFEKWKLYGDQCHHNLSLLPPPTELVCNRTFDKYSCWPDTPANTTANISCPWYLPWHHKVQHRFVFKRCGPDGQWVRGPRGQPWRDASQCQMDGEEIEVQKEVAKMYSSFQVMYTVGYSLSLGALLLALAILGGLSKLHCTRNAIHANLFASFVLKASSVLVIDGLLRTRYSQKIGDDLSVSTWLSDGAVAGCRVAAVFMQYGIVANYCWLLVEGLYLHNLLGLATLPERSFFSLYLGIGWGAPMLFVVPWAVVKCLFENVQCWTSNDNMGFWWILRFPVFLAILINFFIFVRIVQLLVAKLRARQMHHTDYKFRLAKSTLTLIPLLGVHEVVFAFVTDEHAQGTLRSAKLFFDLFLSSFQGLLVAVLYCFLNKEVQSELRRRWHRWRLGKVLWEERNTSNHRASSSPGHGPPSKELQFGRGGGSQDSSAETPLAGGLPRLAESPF

hGLP-1R [2] = target: T2, hGLP-1R (Homo sapiens, UniProt P43220); test: as above; details: read-out: Relative cAMP EC50, hGLP-1R;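 also: intracellular cAMP rise after 30 min at 37 °C read by HTRF, normalized between buffer only (0%) and maximal control ligand (100%), four-parameter variable-slope fit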
T2 sequence (P43220 24-463): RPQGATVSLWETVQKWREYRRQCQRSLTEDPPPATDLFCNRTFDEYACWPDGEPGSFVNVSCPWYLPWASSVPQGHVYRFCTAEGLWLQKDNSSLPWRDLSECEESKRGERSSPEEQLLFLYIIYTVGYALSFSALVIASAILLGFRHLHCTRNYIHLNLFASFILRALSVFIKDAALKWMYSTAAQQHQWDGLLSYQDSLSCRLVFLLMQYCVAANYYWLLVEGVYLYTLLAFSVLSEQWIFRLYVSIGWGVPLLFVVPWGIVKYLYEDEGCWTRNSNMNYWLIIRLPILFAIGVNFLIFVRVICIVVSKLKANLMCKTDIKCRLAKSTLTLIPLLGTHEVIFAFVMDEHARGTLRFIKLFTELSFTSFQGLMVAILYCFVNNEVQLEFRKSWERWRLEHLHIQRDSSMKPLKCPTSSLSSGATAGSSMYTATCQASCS

hGIPR [3] = target: T1, hGIPR; test: Functional cAMP activity in the presence of 1% HSA; details: read-out: cAMP Rel EC50, hGIPR
human GcgR = human GcgR (Homo sapiens, UniProt P47871); test: Functional cAMP activity in the presence of 1% HSA; details: read-out: cAMP Rel EC50, hGcgR
Chain of human GcgR (P47871 26-477): as the sequence (P47871 26-477) above

hGLP-1R [4] = target: T2, hGLP-1R; test: Functional cAMP activity in the presence of 1% HSA; details: read-out: cAMP Rel EC50, hGLP-1R

SMILES	pEC50 (hGIPR [1])	pEC50 (hGcgR)	pEC50 (hGLP-1R [2])	pEC50 (hGIPR [3])	pEC50 (human GcgR)	pEC50 (hGLP-1R [4])
CC[C@H](C)[C@H](NC(=O)[C@H](CC(C)C)NC(=O)[C@](C)(Cc1ccc(O)cc1)NC(=O)[C@@H](CCC(=O)O)NC(=O)[C@@H](NC(=O)[C@H](Cc1ccccc1)NC(=O)[C@H](CO)NC(=O)C(C)(C)NC(=O)[C@H](CCC(N)=O)NC(=O)[C@H](C)NC(=O)[C@H](CCCCNC(=O)CC[C@H](NC(=O)CC[C@H](NC(=O)CCCCCCCCCCCCCCCCC(=O)O)C(=O)O)C(=O)O)NC(=O)[C@H](CCCN)NC(=O)[C@H](CC(=O)O)NC(=O)[C@H](CC(C)C)NC(=O)[C@](C)(CC(C)C)NC(=O)[C@@H](NC(=O)[C@](C)(CO)NC(=O)[C@H](Cc1ccncc1)NC(=O)[C@H](CC(=O)O)NC(=O)[C@H](CO)NC(=O)[C@@H](NC(=O)[C@](C)(Cc1ccccc1F)NC(=O)[C@@H](NC(=O)CNC(=O)[C@H](CCC(N)=O)NC(=O)C(C)(C)NC(=O)[C@@H](N)Cc1ccc(O)cc1)[C@@H](C)O)[C@@H](C)O)[C@@H](C)CC)[C@@H](C)CC)C(=O)N[C@@H](CCC(=O)O)C(=O)NCC(=O)NCC(=O)N1CCC[C@H]1C(=O)N[C@@H](CO)C(=O)N[C@@H](CO)C(=O)NCC(=O)N[C@@H](CCC(=O)O)C(=O)N1CCC[C@H]1C(=O)N1CCC[C@H]1C(=O)N1CCC[C@H]1C(=O)N[C@@H](CCC(=O)O)C(N)=O [Example 436] (H-Y[Aib]QGT[αMePhe(2-F)]TSD[4Pal][αMeS]I[αMeL]LD[Orn]K([γGlu-γGlu-C18 diacid])AQ[Aib]SFI[dE][αMeY]LIEGGPSSGEPPPE-NH2; N-terminus assumed)	10.53	8.64	9.76	8.93	6.74	7.93
CC[C@H](C)[C@H](NC(=O)[C@H](Cc1ccccc1)NC(=O)[C@H](CCCN)NC(=O)C(C)(C)NC(=O)[C@H](CCC(N)=O)NC(=O)[C@H](C)NC(=O)[C@H](CCCCNC(=O)CC[C@H](NC(=O)CC[C@H](NC(=O)CCCCCCCCCCCCCCCCC(=O)O)C(=O)O)C(=O)O)NC(=O)[C@H](CCCN)NC(=O)[C@H](CC(=O)O)NC(=O)[C@H](CC(C)C)NC(=O)[C@](C)(CC(C)C)NC(=O)[C@@H](NC(=O)[C@](C)(CO)NC(=O)[C@H](Cc1ccncc1)NC(=O)[C@H](CC(=O)O)NC(=O)[C@H](CO)NC(=O)[C@@H](NC(=O)[C@](C)(Cc1ccccc1F)NC(=O)[C@@H](NC(=O)CNC(=O)[C@H](CCC(N)=O)NC(=O)C(C)(C)NC(=O)[C@@H](N)Cc1ccc(O)cc1)[C@@H](C)O)[C@@H](C)O)[C@@H](C)CC)C(=O)N[C@H](CCC(=O)O)C(=O)N[C@@](C)(Cc1ccc(O)cc1)C(=O)N[C@@H](CC(C)C)C(=O)N[C@@H](C)C(=O)N[C@@H](CCC(=O)O)C(=O)NCC(=O)NCC(=O)N1CCC[C@H]1C(=O)N[C@@H](CO)C(=O)N[C@@H](CO)C(=O)NCC(=O)N[C@@H](CCC(=O)O)C(=O)N1CCC[C@H]1C(=O)N1CCC[C@H]1C(=O)N1CCC[C@H]1C(=O)N[C@@H](CCC(=O)O)C(N)=O [Example 437] (H-Y[Aib]QGT[αMePhe(2-F)]TSD[4Pal][αMeS]I[αMeL]LD[Orn]K([γGlu-γGlu-C18 diacid])AQ[Aib][Orn]FI[dE][αMeY]LAEGGPSSGEPPPE-NH2)	10.06	8.75	9.38	7.77	6.73	7.57
